# According to ChEMBL document CHEMBL3885861, “Open TG-GATES”:
# Species on record: Rattus norvegicus
# Assay: Open TG-GATES - Regimen: Single
# Type: toxicity, organism-based, Sprague-Dawley
# Design: regimen Single, gender Male, age 6 weeks
# Settings: in vivo, po, route gavage; for gamma-GTP / ALP / ALT / AST / BUN / CRE / Ca / Cl / DBIL / GLC / IP / K / LDH / Na / PL / RALB / TBIL / TC / TG / TP: tissue Plasma; for APTT / Bas / Eos / Fbg / Ht / Lym / MCH / MCHC / MCV / Mono / Neu / PT / Plat / RBC / Ret / WBC: tissue Blood; for KIDNEY_L / KIDNEY_R / KIDNEY_TOTAL: tissue Kidney; for LIVER: tissue Liver
compound,measurement,setting,value
Cc1cccc(Nc2cc(Cl)nc(SCC(=O)O)n2)c1C [PIRINIXIC ACID],gamma-GTP,"0 mg/kg, 24 h, dose level Control",1.2 IU/L
same,TERMINAL_BW,"10 mg/kg, 3 h, dose level Low",205.8 g
same,APTT,"10 mg/kg, 3 h, dose level Low",14 s
same,Bas,"10 mg/kg, 3 h, dose level Low",0%
same,Eos,"10 mg/kg, 3 h, dose level Low",0.6%
same,Fbg,"10 mg/kg, 3 h, dose level Low",312.8 mg/dL
same,Ht,"10 mg/kg, 3 h, dose level Low",39.2%
same,Lym,"10 mg/kg, 3 h, dose level Low",70.2%
same,MCH,"10 mg/kg, 3 h, dose level Low",21.2 pg
same,MCHC,"10 mg/kg, 3 h, dose level Low",34.1%
same,MCV,"10 mg/kg, 3 h, dose level Low",62.1 fL
same,Mono,"10 mg/kg, 3 h, dose level Low",2.6%
same,Neu,"10 mg/kg, 3 h, dose level Low",26%
same,PT,"10 mg/kg, 3 h, dose level Low",12.2 s
same,Plat,"10 mg/kg, 3 h, dose level Low",125.7 x10_4/uL
same,RBC,"10 mg/kg, 3 h, dose level Low",631.2 x10_4/ul
same,Ret,"10 mg/kg, 3 h, dose level Low",8.2%
same,WBC,"10 mg/kg, 3 h, dose level Low",82.9 x10_2/uL
same,KIDNEY_L,"10 mg/kg, 3 h, dose level Low",0.8 g
same,KIDNEY_R,"10 mg/kg, 3 h, dose level Low",0.9 g
same,KIDNEY_TOTAL,"10 mg/kg, 3 h, dose level Low",1.7 g
same,LIVER,"10 mg/kg, 3 h, dose level Low",8.8 g
same,ALP,"10 mg/kg, 3 h, dose level Low",1833.4 IU/L
same,ALT,"10 mg/kg, 3 h, dose level Low",49 IU/L
same,AST,"10 mg/kg, 3 h, dose level Low",74 IU/L
same,BUN,"10 mg/kg, 3 h, dose level Low",11 mg/dL
same,CRE,"10 mg/kg, 3 h, dose level Low",0.2 mg/dL
same,Ca,"10 mg/kg, 3 h, dose level Low",11.2 mg/dL
same,Cl,"10 mg/kg, 3 h, dose level Low",103.8 meq/L
same,DBIL,"10 mg/kg, 3 h, dose level Low",0.058 mg/dL
same,GLC,"10 mg/kg, 3 h, dose level Low",191 mg/dL
same,IP,"10 mg/kg, 3 h, dose level Low",11.1 mg/dL
same,K,"10 mg/kg, 3 h, dose level Low",4.1 meq/L
same,LDH,"10 mg/kg, 3 h, dose level Low",66.4 IU/L
same,Na,"10 mg/kg, 3 h, dose level Low",139.8 meq/L
same,PL,"10 mg/kg, 3 h, dose level Low",173 mg/dL
same,RALB,"10 mg/kg, 3 h, dose level Low",2.6 g/dL
same,TBIL,"10 mg/kg, 3 h, dose level Low",0.044 mg/dL
same,TC,"10 mg/kg, 3 h, dose level Low",87.6 mg/dL
same,TG,"10 mg/kg, 3 h, dose level Low",161 mg/dL
same,TP,"10 mg/kg, 3 h, dose level Low",5.7 g/dL
same,gamma-GTP,"10 mg/kg, 3 h, dose level Low",1 IU/L
same,TERMINAL_BW,"10 mg/kg, 6 h, dose level Low",203.8 g
same,APTT,"10 mg/kg, 6 h, dose level Low",16 s
same,Bas,"10 mg/kg, 6 h, dose level Low",0%
same,Eos,"10 mg/kg, 6 h, dose level Low",0.6%
same,Fbg,"10 mg/kg, 6 h, dose level Low",266.8 mg/dL
same,Ht,"10 mg/kg, 6 h, dose level Low",39.9%
same,Lym,"10 mg/kg, 6 h, dose level Low",76.2%
same,MCH,"10 mg/kg, 6 h, dose level Low",22 pg
same,MCHC,"10 mg/kg, 6 h, dose level Low",34.3%
same,MCV,"10 mg/kg, 6 h, dose level Low",64.2 fL
same,Mono,"10 mg/kg, 6 h, dose level Low",2%
same,Neu,"10 mg/kg, 6 h, dose level Low",20.6%
same,PT,"10 mg/kg, 6 h, dose level Low",12.4 s
same,Plat,"10 mg/kg, 6 h, dose level Low",111.3 x10_4/uL
same,RBC,"10 mg/kg, 6 h, dose level Low",622.6 x10_4/ul
same,Ret,"10 mg/kg, 6 h, dose level Low",7.5%
same,WBC,"10 mg/kg, 6 h, dose level Low",80 x10_2/uL
same,KIDNEY_L,"10 mg/kg, 6 h, dose level Low",0.9 g
same,KIDNEY_R,"10 mg/kg, 6 h, dose level Low",0.8 g
same,KIDNEY_TOTAL,"10 mg/kg, 6 h, dose level Low",1.7 g
same,LIVER,"10 mg/kg, 6 h, dose level Low",7.9 g
same,ALP,"10 mg/kg, 6 h, dose level Low",1630.4 IU/L
same,ALT,"10 mg/kg, 6 h, dose level Low",43.6 IU/L
same,AST,"10 mg/kg, 6 h, dose level Low",79.2 IU/L
same,BUN,"10 mg/kg, 6 h, dose level Low",10 mg/dL
same,CRE,"10 mg/kg, 6 h, dose level Low",0.2 mg/dL
same,Ca,"10 mg/kg, 6 h, dose level Low",10.8 mg/dL
same,Cl,"10 mg/kg, 6 h, dose level Low",106.2 meq/L
same,DBIL,"10 mg/kg, 6 h, dose level Low",0.028 mg/dL
same,GLC,"10 mg/kg, 6 h, dose level Low",190.2 mg/dL
same,IP,"10 mg/kg, 6 h, dose level Low",10.7 mg/dL
same,K,"10 mg/kg, 6 h, dose level Low",4.1 meq/L
same,LDH,"10 mg/kg, 6 h, dose level Low",55.8 IU/L
same,Na,"10 mg/kg, 6 h, dose level Low",141.8 meq/L
same,RALB,"10 mg/kg, 6 h, dose level Low",2.6 g/dL
same,TBIL,"10 mg/kg, 6 h, dose level Low",0.038 mg/dL
same,TC,"10 mg/kg, 6 h, dose level Low",70.8 mg/dL
same,TG,"10 mg/kg, 6 h, dose level Low",76.8 mg/dL
same,TP,"10 mg/kg, 6 h, dose level Low",5.5 g/dL
same,gamma-GTP,"10 mg/kg, 6 h, dose level Low",1.2 IU/L
same,TERMINAL_BW,"10 mg/kg, 9 h, dose level Low",203.6 g
same,APTT,"10 mg/kg, 9 h, dose level Low",16.8 s
same,Bas,"10 mg/kg, 9 h, dose level Low",0%
same,Eos,"10 mg/kg, 9 h, dose level Low",0.6%
same,Fbg,"10 mg/kg, 9 h, dose level Low",248.4 mg/dL
same,Ht,"10 mg/kg, 9 h, dose level Low",38.9%
same,Lym,"10 mg/kg, 9 h, dose level Low",73.6%
same,MCH,"10 mg/kg, 9 h, dose level Low",21.7 pg
same,MCHC,"10 mg/kg, 9 h, dose level Low",34.5%
same,MCV,"10 mg/kg, 9 h, dose level Low",63 fL
same,Mono,"10 mg/kg, 9 h, dose level Low",2.2%
same,Neu,"10 mg/kg, 9 h, dose level Low",23%
same,PT,"10 mg/kg, 9 h, dose level Low",12.5 s
same,Plat,"10 mg/kg, 9 h, dose level Low",105.9 x10_4/uL
same,RBC,"10 mg/kg, 9 h, dose level Low",618 x10_4/ul
same,Ret,"10 mg/kg, 9 h, dose level Low",7.7%
same,WBC,"10 mg/kg, 9 h, dose level Low",67.5 x10_2/uL
same,KIDNEY_L,"10 mg/kg, 9 h, dose level Low",0.9 g
same,KIDNEY_R,"10 mg/kg, 9 h, dose level Low",0.9 g
same,KIDNEY_TOTAL,"10 mg/kg, 9 h, dose level Low",1.7 g
same,LIVER,"10 mg/kg, 9 h, dose level Low",7.8 g
same,ALP,"10 mg/kg, 9 h, dose level Low",1462.6 IU/L
same,ALT,"10 mg/kg, 9 h, dose level Low",35.4 IU/L
same,AST,"10 mg/kg, 9 h, dose level Low",69.2 IU/L
same,BUN,"10 mg/kg, 9 h, dose level Low",9.4 mg/dL
same,CRE,"10 mg/kg, 9 h, dose level Low",0.2 mg/dL
same,Ca,"10 mg/kg, 9 h, dose level Low",10.6 mg/dL
same,Cl,"10 mg/kg, 9 h, dose level Low",105 meq/L
same,DBIL,"10 mg/kg, 9 h, dose level Low",0.024 mg/dL
same,GLC,"10 mg/kg, 9 h, dose level Low",191.2 mg/dL
same,IP,"10 mg/kg, 9 h, dose level Low",10.6 mg/dL
same,K,"10 mg/kg, 9 h, dose level Low",3.7 meq/L
same,LDH,"10 mg/kg, 9 h, dose level Low",53.2 IU/L
same,Na,"10 mg/kg, 9 h, dose level Low",141.2 meq/L
same,PL,"10 mg/kg, 9 h, dose level Low",121.8 mg/dL
same,RALB,"10 mg/kg, 9 h, dose level Low",2.6 g/dL
same,TBIL,"10 mg/kg, 9 h, dose level Low",0.034 mg/dL
same,TC,"10 mg/kg, 9 h, dose level Low",63.8 mg/dL
same,TG,"10 mg/kg, 9 h, dose level Low",76.6 mg/dL
same,TP,"10 mg/kg, 9 h, dose level Low",5.3 g/dL
same,gamma-GTP,"10 mg/kg, 9 h, dose level Low",1.4 IU/L
same,TERMINAL_BW,"10 mg/kg, 24 h, dose level Low",212.4 g
same,APTT,"10 mg/kg, 24 h, dose level Low",15.7 s
same,Bas,"10 mg/kg, 24 h, dose level Low",0.2%
same,Eos,"10 mg/kg, 24 h, dose level Low",0.8%
same,Fbg,"10 mg/kg, 24 h, dose level Low",217.8 mg/dL
same,Ht,"10 mg/kg, 24 h, dose level Low",38.2%
same,Lym,"10 mg/kg, 24 h, dose level Low",77%
same,MCH,"10 mg/kg, 24 h, dose level Low",21.4 pg
same,MCHC,"10 mg/kg, 24 h, dose level Low",34.2%
same,MCV,"10 mg/kg, 24 h, dose level Low",62.6 fL
same,Mono,"10 mg/kg, 24 h, dose level Low",2.2%
same,Neu,"10 mg/kg, 24 h, dose level Low",19.6%
same,PT,"10 mg/kg, 24 h, dose level Low",12.8 s
same,Plat,"10 mg/kg, 24 h, dose level Low",111.5 x10_4/uL
same,RBC,"10 mg/kg, 24 h, dose level Low",611 x10_4/ul
same,Ret,"10 mg/kg, 24 h, dose level Low",7.3%
same,WBC,"10 mg/kg, 24 h, dose level Low",90.6 x10_2/uL
same,KIDNEY_L,"10 mg/kg, 24 h, dose level Low",0.9 g
same,KIDNEY_R,"10 mg/kg, 24 h, dose level Low",0.9 g
same,KIDNEY_TOTAL,"10 mg/kg, 24 h, dose level Low",1.9 g
same,LIVER,"10 mg/kg, 24 h, dose level Low",10.8 g
same,ALP,"10 mg/kg, 24 h, dose level Low",1927 IU/L
same,ALT,"10 mg/kg, 24 h, dose level Low",47 IU/L
same,AST,"10 mg/kg, 24 h, dose level Low",71.4 IU/L
same,BUN,"10 mg/kg, 24 h, dose level Low",13.6 mg/dL
same,CRE,"10 mg/kg, 24 h, dose level Low",0.2 mg/dL
same,Ca,"10 mg/kg, 24 h, dose level Low",11 mg/dL
same,Cl,"10 mg/kg, 24 h, dose level Low",104.2 meq/L
same,DBIL,"10 mg/kg, 24 h, dose level Low",0.022 mg/dL
same,GLC,"10 mg/kg, 24 h, dose level Low",191.4 mg/dL
same,IP,"10 mg/kg, 24 h, dose level Low",8.7 mg/dL
same,K,"10 mg/kg, 24 h, dose level Low",4 meq/L
same,LDH,"10 mg/kg, 24 h, dose level Low",57 IU/L
same,Na,"10 mg/kg, 24 h, dose level Low",143.2 meq/L
same,PL,"10 mg/kg, 24 h, dose level Low",108.8 mg/dL
same,RALB,"10 mg/kg, 24 h, dose level Low",2.5 g/dL
same,TBIL,"10 mg/kg, 24 h, dose level Low",0.034 mg/dL
same,TC,"10 mg/kg, 24 h, dose level Low",54.8 mg/dL
same,TG,"10 mg/kg, 24 h, dose level Low",49.4 mg/dL
same,TP,"10 mg/kg, 24 h, dose level Low",5.1 g/dL
same,gamma-GTP,"10 mg/kg, 24 h, dose level Low",1 IU/L
